Test results reported in patent US10259810B2, “N-sulfonylated pyrazolo[3,4-b]pyridin-6-carboxamides and method of use” (AbbVie S.à.r.l., priority 2015, dated 2019).

Columns and labels:
ΔF508-CFTR [1] = molecular target: T1, ΔF508-CFTR (Homo sapiens, UniProt P13569, DEL508-508); experiment: CFTR cell surface levels using HRP-tagged ΔF508-CFTR expressing CFBE cells, in the presence of a co-corrector; type: cell-based; settings: HRP-tagged ΔF508-CFTR CFBE cells, in the presence of 3 μM co-corrector; for EC50: read-out: EC50
T1 construct: host or cells: CFBE41o-, doxycycline-inducible
T1 sequence (P13569 with tags, fused parts or gaps DEL508-508): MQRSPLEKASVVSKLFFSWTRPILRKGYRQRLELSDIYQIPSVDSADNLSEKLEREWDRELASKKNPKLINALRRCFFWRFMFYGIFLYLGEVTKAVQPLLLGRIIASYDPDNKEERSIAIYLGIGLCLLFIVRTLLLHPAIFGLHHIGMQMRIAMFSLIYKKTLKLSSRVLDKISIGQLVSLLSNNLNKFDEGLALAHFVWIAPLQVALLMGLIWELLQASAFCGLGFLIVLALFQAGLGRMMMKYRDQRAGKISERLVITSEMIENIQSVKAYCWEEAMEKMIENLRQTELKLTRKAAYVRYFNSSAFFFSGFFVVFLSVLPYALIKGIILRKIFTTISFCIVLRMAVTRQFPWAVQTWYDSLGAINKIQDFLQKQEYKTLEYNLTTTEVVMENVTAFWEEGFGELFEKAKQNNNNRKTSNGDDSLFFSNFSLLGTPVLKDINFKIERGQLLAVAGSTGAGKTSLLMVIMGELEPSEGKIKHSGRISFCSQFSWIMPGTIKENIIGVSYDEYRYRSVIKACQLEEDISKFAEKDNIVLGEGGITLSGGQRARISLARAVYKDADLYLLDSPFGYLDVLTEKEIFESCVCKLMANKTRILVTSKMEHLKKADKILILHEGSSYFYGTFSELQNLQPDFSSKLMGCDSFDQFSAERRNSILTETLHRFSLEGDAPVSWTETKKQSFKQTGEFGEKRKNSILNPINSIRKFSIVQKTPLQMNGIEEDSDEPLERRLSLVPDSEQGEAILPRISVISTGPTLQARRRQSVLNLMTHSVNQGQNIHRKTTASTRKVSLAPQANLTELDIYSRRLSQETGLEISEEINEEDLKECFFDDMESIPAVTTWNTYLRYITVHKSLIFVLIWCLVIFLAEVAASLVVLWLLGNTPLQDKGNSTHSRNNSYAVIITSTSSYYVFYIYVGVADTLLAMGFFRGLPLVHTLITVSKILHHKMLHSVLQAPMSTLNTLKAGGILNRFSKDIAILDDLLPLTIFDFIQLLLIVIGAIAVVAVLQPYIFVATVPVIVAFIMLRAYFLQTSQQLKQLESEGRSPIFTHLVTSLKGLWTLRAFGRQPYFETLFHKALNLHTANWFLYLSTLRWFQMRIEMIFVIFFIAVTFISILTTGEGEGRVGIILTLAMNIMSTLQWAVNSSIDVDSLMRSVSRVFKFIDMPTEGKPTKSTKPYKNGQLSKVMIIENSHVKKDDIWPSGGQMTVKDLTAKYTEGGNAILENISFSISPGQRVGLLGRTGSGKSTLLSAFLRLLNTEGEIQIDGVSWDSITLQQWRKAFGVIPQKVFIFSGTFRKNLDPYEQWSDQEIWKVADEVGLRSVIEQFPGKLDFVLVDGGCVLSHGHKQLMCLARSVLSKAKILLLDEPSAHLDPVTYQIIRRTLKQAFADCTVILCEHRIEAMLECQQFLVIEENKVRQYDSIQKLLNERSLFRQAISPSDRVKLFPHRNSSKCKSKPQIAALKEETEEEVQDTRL
Source text: (§1) Measuring CFTR Cell Surface Levels Using HRP-Tagged ΔF508-CFTR Expressing CFBE Cells
(§2) The HRP-tagged ΔF508-CFTR cell assay measures the expression of CFTR-ΔF508 at the plasma membrane. CFTR-ΔF508 has a folding defect leading to absence of protein at the plasma membrane. This assay is used to evaluate the capacity of compounds to increase the expression of CFTR-ΔF508 at the plasma membrane. The CFTR-ΔF508 is tagged with HRP (horse radish peroxidase enzyme) within the ECL4 (Extracellular loop 4) of CFTR (Phuan, P.-W. et al. Synergy-based small-molecule screen using a human lung epithelial cell line yields ΔF508-CFTR correctors that augment VX-809 maximal efficacy. Mol. Pharmacol. 86, 42-51 (2014)). When HRP-tagged ΔF508-CFTR is present at the plasma membrane, the HRP enzyme activity can be measured. The amount of CFTR-ΔF508 that can be rescued to the plasma membrane is correlated with the amount of functional enzyme that can be measured.
(§3) There are several ways to measure the capacity of compounds to rescue CFTR-ΔF508 to the plasma membrane; either compounds are evaluated on their own and the impact on plasma membrane levels is measured or compounds are evaluated in combination with a co-corrector, i.e. a compound that rescues CFTR-ΔF508 to the plasma membrane but rescue can be enhanced by addition of compounds due to a complementary mode of action.
Activity of Compounds in Combination with Co-Corrector:
For this purpose doxycycline-inducible ΔF508-CFTR-HRP expressing CFBE4lo− cells (obtained from Gergely Lukacs, McGill University) were maintained in MEM (Minimum Essential Medium, Gibco; 31095) supplemented with 10% fetal bovine serum (Hyclone; SV30160.03) under puromycin (3 μg/mL) and G418 selection (0.2 mg/mL). For compound testing, cells were seeded at 4000 cells/well in white 384-well plates (Greiner; 781080) in 50 μL of medium containing 0.5 μg/mL doxycycline and incubated for 68 hours at 37° C., 5% CO2. On day four, 10 μL of test compounds diluted in PBS (phosphate buffered saline) were added to the plates at a final DMSO concentration of 0.1%. In order to measure compound synergy with a co-corrector, 3 μM co-corrector (3-[(2R,4R)-4-({[1-(2,2-difluoro-1,3-benzodioxol-5-yl)cyclopropyl]carbonyl}amino)-7-methoxy-3,4-dihydro-2H-chromen-2-yl]benzoic acid) was added along with test compounds. All compound plates contained negative controls (DMSO) and positive controls (3 μM co-corrector). Cell plates were incubated at 33° C., 5% CO2 for 20 hours. On day five, the cells were washed five times with phosphate-buffered saline, and HRP activity was assayed by the addition of 50 μL/well of HRP substrate (SuperSignal™ West Pico Chemiluminescent Substrate, Thermo Scientific; 34080). After incubation for 15 minutes in the dark, the chemiluminescence was measured using a plate reader (EnVision®, Perkin Elmer). Raw data were normalized to percentage activity values using the equation: 100×(Sample−Negative control)/(Positive control−Negative Control).

ΔF508-CFTR [2] = molecular target: T1, ΔF508-CFTR; experiment: CFTR cell surface levels using HRP-tagged ΔF508-CFTR expressing CFBE cells, intrinsic corrector capacity; type: cell-based; set-up: % Activation: concentration or dose not given beside the values; settings: HRP-tagged ΔF508-CFTR expressing CFBE41o- cells, compound alone (intrinsic corrector capacity), 20 hours at 33° C.; for EC50: read-out: EC50
Source text: as §1, §2, §3
Activity of Compounds for their Intrinsic Corrector Capacity:
For this purpose doxycycline-inducible ΔF508-CFTR-HRP expressing CFBE4lo− cells (obtained from Gergely Lukacs, McGill University) were maintained in MEM (Gibco; 31095) supplemented with 10% fetal bovine serum (Hyclone; SV30160.03) under puromycin (3 μg/mL) and G418 selection (0.2 mg/mL). For compound testing, cells were seeded at 4000 cells/well in white 384-well plates (Greiner; 781080) in 50 μL medium containing 0.5 μg/mL doxycycline and incubated for 68 hours at 37° C., 5% CO2. On day four, […] compounds diluted in PBS were added to the plates at a final DMSO concentration of 0.1%. All compound plates contained negative controls (DMSO) and positive controls ([…] corrector, 3-[(2R,4R)-4-({[1-(2,2-difluoro-1,3-benzodioxol-5-yl)cyclopropyl]carbonyl}amino)-7-methoxy-3,4-dihydro-2H-chromen-2-yl]benzoic acid). Cell plates were incubated at 33° C., 5% CO2 for 20 hours. On day five, the cells were washed five times with phosphate-buffered saline, and HRP activity was assayed by the addition of 50 μL/well of HRP substrate (SuperSignal™ West Pico Chemiluminescent Substrate, Thermo Scientific; 34080). After incubation for 15 minutes in the dark, chemiluminescence was measured using a plate reader (EnVision®, Perkin Elmer). Raw data were normalized to percentage activity values using the equation: 100×(Sample−Negative control)/(Positive control−Negative Control).

Row | Structure (SMILES) | % Activation (ΔF508-CFTR [1]) [%] | EC50 (ΔF508-CFTR [1]) [µM] | % Activation (ΔF508-CFTR [2]) [%] | EC50 (ΔF508-CFTR [2]) [µM]
1 | C[C@H](C1CCN(c2cc(C(=O)NS(=O)(=O)N(C)C)nc3c2c(C2CCC2)nn3-c2ccc(F)cc2)CC1)N1CCOCC1 (single isomer, unassigned) [Compound 479] | 524.1 | 0.109 | 305.7 | 0.197
2 | COCC1CCN(c2cc(C(=O)NS(=O)(=O)CCl)nc3c2c(C2CCC2)nn3-c2ccccc2)CC1 [AC07] | 466.9 | 0.0766 | 268.5 | 0.139
3 | Cc1nn(-c2ccccc2)c2nc(C(=O)NS(=O)(=O)c3ccccc3)cc(-c3ccc(N4CCOCC4)cc3)c12 [Compound 2, N-(benzenesulfonyl)-3-methyl-4-[4-(morpholin-4-yl)phenyl]-1-phenyl-1H-pyrazolo[3,4-b]pyridine-6-carboxamide] | 431.5 | 1.12 | 226.75 | 1.87
4 | Cc1nn(-c2ccccc2)c2nc(C(=O)NS(=O)(=O)C3CC3)cc(-c3ccc(N4CCOCC4)cc3)c12 [Compound 4, N-(cyclopropanesulfonyl)-3-methyl-4-[4-(morpholin-4-yl)phenyl]-1-phenyl-1H-pyrazolo[3,4-b]pyridine-6-carboxamide] | 405.8 | 0.298 | 246.7 | 0.838
5 | Cc1nn(-c2cccc(OC(F)(F)F)c2)c2nc(C(=O)NS(C)(=O)=O)cc(-c3ccc(N4CCOCC4)cc3)c12 [Compound 6, N-(methanesulfonyl)-3-methyl-4-[4-(morpholin-4-yl)phenyl]-1-[3-(trifluoromethoxy)phenyl]-1H-pyrazolo[3,4-b]pyridine-6-carboxamide] | 387.1 | 0.511 | 232.1 | 0.808
6 | CC(C)c1nn(-c2ccccc2)c2nc(C(=O)NS(C)(=O)=O)cc(-c3ccc(N(C)C)cc3)c12 [Compound 7, 4-[4-(dimethylamino)phenyl]-N-(methanesulfonyl)-1-phenyl-3-(propan-2-yl)-1H-pyrazolo[3,4-b]pyridine-6-carboxamide] | 420.63 | 0.554 | 245 | 0.636
7 | Cc1nn(-c2cccc(C(F)(F)F)c2)c2nc(C(=O)NS(C)(=O)=O)cc(-c3ccc(N4CCOCC4)cc3)c12 [Compound 8, N-(methanesulfonyl)-3-methyl-4-[4-(morpholin-4-yl)phenyl]-1-[3-(trifluoromethyl)phenyl]-1H-pyrazolo[3,4-b]pyridine-6-carboxamide] | 441.85 | 0.854 | 270.6 | 0.9
8 | CC(C)c1nn(C2CCCCC2)c2nc(C(=O)NS(C)(=O)=O)cc(-c3cnc(N(C)C)nc3)c12 [Compound 9, 1-cyclohexyl-4-[2-(dimethylamino)pyrimidin-5-yl]-N-(methanesulfonyl)-3-(propan-2-yl)-1H-pyrazolo[3,4-b]pyridine-6-carboxamide] | 335 | 0.505 | 143.05 | 0.786
9 | CC(C)(C)c1nn(C2CCCC2)c2nc(C(=O)NS(C)(=O)=O)cc(-c3ccc(N4CCOCC4)nc3)c12 [Compound 12, 3-tert-butyl-1-cyclopentyl-N-(methanesulfonyl)-4-[6-(morpholin-4-yl)pyridin-3-yl]-1H-pyrazolo[3,4-b]pyridine-6-carboxamide] | 364.15 | 0.714 | 161.15 | 1.07
10 | COc1ccc(-c2cc(C(=O)NS(C)(=O)=O)nc3c2c(C)nn3-c2ccccc2)cc1 [Compound 14, N-(methanesulfonyl)-4-(4-methoxyphenyl)-3-methyl-1-phenyl-1H-pyrazolo[3,4-b]pyridine-6-carboxamide] | 335.6 | 1.37 | 148.9 | 1.43
11 | CCS(=O)(=O)NC(=O)c1cc(-c2ccc(OC)cc2)c2c(C)nn(-c3ccccc3)c2n1 [Compound 15, N-(ethanesulfonyl)-4-(4-methoxyphenyl)-3-methyl-1-phenyl-1H-pyrazolo[3,4-b]pyridine-6-carboxamide] | 346.15 | 0.852 | 151.65 | 1.19
12 | CCOC(=O)N1CCN(c2cc(C(=O)NS(=O)(=O)NC)nc3c2c(C2CCC2)nn3-c2ccc(F)cc2)CC1 [Compound 680, ethyl 4-{3-cyclobutyl-1-(4-fluorophenyl)-6-[(methylsulfamoyl)carbamoyl]-1H-pyrazolo[3,4-b]pyridin-4-yl}piperazine-1-carboxylate] | – | – | 351.2 | 0.339
13 | CC(C)COC(=O)N1CCN(c2cc(C(=O)NS(C)(=O)=O)nc3c2c(C2CCC2)nn3-c2ccc(F)cc2)CC1 [Compound 681, 2-methylpropyl 4-{3-cyclobutyl-1-(4-fluorophenyl)-6-[(methanesulfonyl)carbamoyl]-1H-pyrazolo[3,4-b]pyridin-4-yl}piperazine-1-carboxylate] | – | – | 366.2 | 0.172
14 | CC(C)COC(=O)N1CCN(c2cc(C(=O)NS(=O)(=O)N3CCOCC3)nc3c2c(C2CCC2)nn3-c2ccc(F)cc2)CC1 [Compound 682, 2-methylpropyl 4-{3-cyclobutyl-1-(4-fluorophenyl)-6-[(morpholine-4-sulfonyl)carbamoyl]-1H-pyrazolo[3,4-b]pyridin-4-yl}piperazine-1-carboxylate] | – | – | 260.8 | 0.297
15 | COCCS(=O)(=O)NC(=O)c1cc(N2CCN(C(=O)OCC(C)C)CC2)c2c(C3CCC3)nn(-c3ccc(F)cc3)c2n1 [Compound 683, 2-methylpropyl 4-{3-cyclobutyl-1-(4-fluorophenyl)-6-[(2-methoxyethanesulfonyl)carbamoyl]-1H-pyrazolo[3,4-b]pyridin-4-yl}piperazine-1-carboxylate] | – | – | 354.9 | 0.253
16 | CNS(=O)(=O)NC(=O)c1cc(N2CCN(C(=O)OCC(C)C)CC2)c2c(C3CCC3)nn(-c3ccc(F)cc3)c2n1 [Compound 684, 2-methylpropyl 4-{3-cyclobutyl-1-(4-fluorophenyl)-6-[(methylsulfamoyl)carbamoyl]-1H-pyrazolo[3,4-b]pyridin-4-yl}piperazine-1-carboxylate] | – | – | 356.9 | 0.115
17 | CN1CCC2(CC1)CCN(c1cc(C(=O)NS(=O)(=O)N3CCOCC3)nc3c1c(C1CCC1)nn3-c1ccc(F)cc1)CC2 [Compound 685, 3-cyclobutyl-1-(4-fluorophenyl)-4-(9-methyl-3,9-diazaspiro[5.5]undecan-3-yl)-N-(morpholine-4-sulfonyl)-1H-pyrazolo[3,4-b]pyridine-6-carboxamide] | – | – | 144.3 | 0.77
